Results from ChEMBL document CHEMBL3352411, “Structure-activity relationships (SAR) and structure-kinetic relationships (SKR) of bicyclic heteroaromatic acetic acids as potent CRTh2 antagonists II: lead optimization” (Bioorg Med Chem Lett, 2014).
pIC50: −log10 of the molar value.

Columns and labels:
[1] = biological target: T1, Prostaglandin D2 receptor 2 (Homo sapiens) (UniProt Q9Y5Y4); test: Binding affinity to CRTh2 receptor (unknown origin) overexpressed in CHOK1 cell membranes assessed as dissociation half life at 10 times IC50 concentration preincubated for 1 hr with 0.1 nM to 100 uM PGD2 and [35S]-GTPgammaS by liquid scintillation counting analysis; type: functional; details: CHO-K1
T1 sequence (whole entry): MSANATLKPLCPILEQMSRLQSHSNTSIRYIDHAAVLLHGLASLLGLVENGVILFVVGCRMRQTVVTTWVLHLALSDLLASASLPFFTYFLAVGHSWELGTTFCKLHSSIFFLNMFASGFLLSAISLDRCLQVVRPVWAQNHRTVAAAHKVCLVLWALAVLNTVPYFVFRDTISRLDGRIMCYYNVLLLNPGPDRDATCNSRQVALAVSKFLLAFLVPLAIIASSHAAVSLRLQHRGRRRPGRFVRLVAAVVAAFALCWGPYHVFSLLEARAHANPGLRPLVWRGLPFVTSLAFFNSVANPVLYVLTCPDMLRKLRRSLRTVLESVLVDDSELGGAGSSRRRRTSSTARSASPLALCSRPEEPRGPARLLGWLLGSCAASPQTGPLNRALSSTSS

[2] = biological target: T2, Prostaglandin D2 receptor 2 (Homo sapiens, UniProt Q9Y5Y4); test: Antagonist activity at CRTh2 receptor (unknown origin) overexpressed in CHOK1 cell membranes assessed as inhibition of [35S]-GTPgammaS binding measured after 2 hrs by liquid scintillation counting analysis; type: functional, CHO-K1
T2 sequence (Q9Y5Y4 whole entry): T1 sequence (whole entry)

[3] = Mean residence time in Wistar rat at 1 mg/kg, iv; type: ADME, organism-based; design: dose 1 mg/kg, route intravenous; details: in vivo
[4] = Oral bioavailability in Wistar rat at 10 mg/kg; type: ADME, organism-based; details: in vivo
[5] = Terminal half life in Wistar rat at 1 mg/kg, iv; type: ADME, organism-based; design: dose 1 mg/kg, route intravenous; details: in vivo, read-out: beta t1/2 (converted)
[6] = Clearance in Wistar rat at 1 mg/kg, iv; type: ADME, organism-based; design: dose 1 mg/kg, route intravenous; details: in vivo
[7] = Cmax in Wistar rat at 1 mg/kg, iv; type: ADME, organism-based; design: dose 1 mg/kg, route intravenous; details: in vivo
[8] = Volume of distribution at steady state in Wistar rat at 1 mg/kg, iv; type: ADME, organism-based; design: dose 1 mg/kg, route intravenous; details: in vivo, read-out: Vdss
[9] = AUC (0 to infinity) in Wistar rat at 1 mg/kg, iv; type: ADME, organism-based; design: time infinity, dose 1 mg/kg, route intravenous; details: plasma

Row | T1/2 [1] [h] | pIC50 [2] | Structure (SMILES) | also measured
1 | 1.8 | 8.05 | CCN(Cc1cc(C(F)(F)F)ccc1-c1nn(CC(=O)O)c2ccc(C)cc12)C(=O)C1CC1 | –
2 | 9.9 | 8.00 | CCc1ccc2c(CC(=O)O)cn(-c3ccc(C(F)(F)F)cc3CN(CC)C(=O)C3CC3)c2n1 | –
3 | 6.4 | – | CCN(Cc1cc(C(F)(F)F)ccc1-n1cc(CC(=O)O)c2ccc(C)nc21)C(C)=O | –
4 | 24 | 8.22 | CCN(Cc1cc(C(F)(F)F)ccc1-n1cc(CC(=O)O)c2ccc(C)nc21)C(=O)Cc1ccccc1 | –
5 | 21 | 8.00 | CCN(Cc1cc(C(F)(F)F)ccc1-n1cc(CC(=O)O)c2ccc(C)nc21)C(=O)C1CC1 | MRT [3]: 2.3 h; bioavailability [4]: 27%; half-life [5]: 4.9 h; clearance [6]: 14 mL/min/kg; Cmax [7]: 1610 ng/mL; Vd [8]: 1.8 L/kg; AUC(0-inf) [9]: 1220 ng·h/mL
6 | – | 7.01 | CCN(Cc1cc(C(F)(F)F)ccc1-n1cc(CC(=O)O)c2ccc(C)nc21)C(=O)c1ccccn1 | –
7 | – | 6.79 | CCN(Cc1cc(C(F)(F)F)ccc1-n1cc(CC(=O)O)c2ccc(C)nc21)C(=O)CN(C)C | –
8 | 25 | 7.82 | CCN(Cc1cc(C(F)(F)F)ccc1-c1cn(CC(=O)O)c2ccc(C(F)(F)F)nc12)C(=O)C1CC1 | –
9 | 11 | 8.33 | CCN(Cc1cc(F)ccc1-n1cc(CC(=O)O)c2ccc(C)nc21)C(=O)C1CC1 | –
10 | 32 | 7.96 | Cc1ccc2c(CC(=O)O)cn(-c3ccc(C(F)(F)F)cc3CN(CC3CC3)C(=O)C3CC3)c2n1 | –
11 | 26 | 8.30 | CCN(Cc1cc(C(F)(F)F)ccc1-n1cc(CC(=O)O)c2ccc(C)nc21)C(=O)NCc1ccccc1 | –
12 | 3.2 | 8.20 | CCN(Cc1cc(C(F)(F)F)ccc1-c1nn(CC(=O)O)c2cccc(Cl)c12)C(=O)C1CC1 | –
13 | – | 6.92 | CCN(Cc1cc(C(F)(F)F)ccc1-n1cc(CC(=O)O)c2ccc(C)cc21)C(=O)C1CC1 | –
14 | 1.3 | – | CCN(Cc1cc(F)ccc1-n1cc(CC(=O)O)c2cccnc21)C(=O)C1CC1 | –
15 | 24 | 8.23 | CCN(Cc1cc(C)ccc1-n1cc(CC(=O)O)c2ccc(C)nc21)C(=O)C1CC1 | –
16 | 5 | 8.37 | CCN(Cc1cc(C(F)(F)F)ccc1-c1nn(CC(=O)O)c2cccc(F)c12)C(=O)C1CC1 | –
17 | 19 | – | CCN(Cc1cc(C(F)(F)F)ccc1-c1cc(CC(=O)O)n2ccc(C)nc12)C(=O)C1CC1 | –
18 | 21 | 8.05 | CCN(Cc1cc(C(F)(F)F)ccc1-n1cc(CC(=O)O)c2ccc(C)nc21)C(=O)COC | –
19 | 20 | 7.85 | CCN(Cc1cc(F)ccc1-c1cn(CC(=O)O)c2ccc(C(F)(F)F)cc12)C(=O)C1CC1 | –
20 | 2 | – | CCN(Cc1cc(C(F)(F)F)ccc1-c1cc(CC(=O)O)n2cccnc12)C(=O)C1CC1 | MRT [3]: 2.6 h; half-life [5]: 4.6 h; clearance [6]: 26 mL/min/kg; Cmax [7]: 910 ng/mL; Vd [8]: 4.2 L/kg; AUC(0-inf) [9]: 639 ng·h/mL
21 | 2.5 | – | CCN(Cc1cc(C(F)(F)F)ccc1-n1cc(CC(=O)O)c2ccccc21)C(=O)C1CC1 | –
22 | 29 | 7.96 | CCN(Cc1cc(C(F)(F)F)ccc1-n1cc(CC(=O)O)c2ccc(C(F)F)nc21)C(=O)C1CC1 | –
23 | 40 | 8.40 | Cc1ccc2c(CC(=O)O)cn(-c3ccc(C(F)(F)F)cc3CN(CCOc3ccccc3)C(=O)C3CC3)c2n1 | –
24 | 7 | 8.40 | COCCN(Cc1cc(C(F)(F)F)ccc1-n1cc(CC(=O)O)c2ccc(C)nc21)C(=O)C1CC1 | –

Row | T1/2 [1] [h] | pIC50 [2] | Structure (SMILES) | also measured
25 | 1.2 | 7.48 | CCN(Cc1cc(C(F)(F)F)ccc1-c1nn(CC(=O)O)c2cccc(C#N)c12)C(=O)C1CC1 | –
26 | 2.4 | 7.64 | CCN(Cc1cc(C(F)(F)F)ccc1-c1nn(CC(=O)O)c2cccc(OC)c12)C(=O)C1CC1 | –
27 | 5.4 | 7.31 | CCN(Cc1cc(C(F)(F)F)ccc1-n1cc(CC(=O)O)c2ccc(C3CC3)nc21)C(=O)C1CC1 | –
28 | 8.8 | – | CCN(Cc1ccccc1-n1cc(CC(=O)O)c2ccc(C)nc21)C(=O)C1CC1 | –
29 | 2.3 | – | CCN(Cc1cc(C(F)(F)F)ccc1-n1cc(CC(=O)O)c2cccnc21)C(=O)C1CC1 | –
30 | – | 6.90 | CCN(Cc1cc(C(F)(F)F)ccc1-c1nn(CC(=O)O)c2cc(F)ccc12)C(=O)C1CC1 | –
31 | 24 | 8.00 | CCN(Cc1cc(C(F)(F)F)ccc1-n1cc(CC(=O)O)c2ccc(C)nc21)C(=O)C1CCC1 | –
32 | 16 | 8.24 | CCN(Cc1cc(OC(F)(F)F)ccc1-n1cc(CC(=O)O)c2ccc(C)nc21)C(=O)C1CC1 | –
33 | – | 6.87 | CCN(Cc1cc(C(F)(F)F)ccc1-n1cc(CC(=O)O)c2ccc(OC)nc21)C(=O)C1CC1 | –
34 | – | 7.72 | CCN(Cc1cc(C(F)(F)F)ccc1-c1nn(CC(=O)O)c2ccccc12)C(=O)C1CC1 | –
35 | – | 7.40 | CCN(Cc1cc(S(C)(=O)=O)ccc1-n1cc(CC(=O)O)c2ccc(C)nc21)C(=O)C1CC1 | –
36 | 9.2 | 7.55 | Cc1ccc2c(CC(=O)O)cn(-c3ccc(C(F)(F)F)cc3CN(C(=O)C3CC3)C(C)C)c2n1 | –
37 | 7.8 | 7.85 | Cc1ccc2c(CC(=O)O)cn(-c3ccc(C(F)(F)F)cc3CN(CCO)C(=O)C3CC3)c2n1 | –
38 | 21 | 7.77 | CCN(Cc1cc(C(F)(F)F)ccc1-c1cn(CC(=O)O)c2ccc(C)nc12)C(=O)C1CC1 | MRT [3]: 0.3 h; half-life [5]: 0.5 h; clearance [6]: 134 mL/min/kg; Cmax [7]: 366 ng/mL; Vd [8]: 2.7 L/kg; AUC(0-inf) [9]: 126 ng·h/mL
39 | 1.4 | – | CCN(Cc1cc(C(F)(F)F)ccc1-c1nn(CC(=O)O)c2ccc(F)cc12)C(=O)C1CC1 | –
40 | – | 7.27 | CCN(Cc1cc(C(F)(F)F)ccc1-n1cc(CC(=O)O)c2ccc(C(F)(F)F)nc21)C(=O)C1CC1 | –
41 | 22 | 8.15 | CCN(Cc1cc(C(F)(F)F)ccc1-n1cc(CC(=O)O)c2ccc(C)nc21)C(=O)CC1CC1 | –
42 | 2 | – | CCN(Cc1cc(F)ccc1-c1cn(CC(=O)O)c2ccccc12)C(=O)C1CC1 | MRT [3]: 1.2 h; half-life [5]: 1.9 h; clearance [6]: 76 mL/min/kg; Cmax [7]: 431 ng/mL; Vd [8]: 5.4 L/kg; AUC(0-inf) [9]: 222 ng·h/mL
43 | 26 | 8.38 | CCN(Cc1cc(C(F)(F)F)ccc1-c1cc(CC(=O)O)c2ccc(C)nn12)C(=O)C1CC1 | –
44 | 1.9 | 7.70 | CCN(Cc1cc(C(F)(F)F)ccc1-c1cn(CC(=O)O)c2cccnc12)C(=O)C1CC1 | –
45 | 31 | 8.28 | CCN(Cc1cc(Cl)ccc1-n1cc(CC(=O)O)c2ccc(C)nc21)C(=O)C1CC1 | –
46 | 27 | 7.96 | CCN(Cc1ccccc1-n1cc(CC(=O)O)c2ccc(C(F)(F)F)cc21)C(=O)C1CC1 | MRT [3]: 3.4 h; half-life [5]: 6.6 h; clearance [6]: 16 mL/min/kg; Cmax [7]: 1900 ng/mL; Vd [8]: 3.2 L/kg; AUC(0-inf) [9]: 1070 ng·h/mL
47 | 10.5 | 7.82 | CCN(Cc1cc(C(F)(F)F)ccc1-c1nn(CC(=O)O)c2ccc(Cl)c(F)c12)C(=O)C1CC1 | –

Row | Structure (SMILES) | T1/2 [1] [h] | pIC50 [2] | also measured
48 | CCN(Cc1cc(C(F)(F)F)ccc1-c1nn(CC(=O)O)c2ccc(F)c(Cl)c12)C(=O)C1CC1 | 3.3 | – | –
49 | CCN(Cc1cc(C(F)(F)F)ccc1-c1nn(CC(=O)O)c2cccc(C)c12)C(=O)C1CC1 | 2.3 | – | –
50 | CCN(Cc1cc(C(F)(F)F)ccc1-c1nn(CC(=O)O)c2ccc(Cl)cc12)C(=O)C1CC1 | 2.8 | – | –
